# Laboratory results taken from the supplement of paper PMC10307832.
# Tests used:
# Assay in all cases: relative viability (nuclei count vs DMSO), 5 days (fraction); higher = more cells survive
# [1] = compound: CCc1cnn2c(NCc3ccc[n+]([O-])c3)cc(N3CCCC[C@H]3CCO)nc12 [Dinaciclib] + C[C@]1(O)C[C@@H](c2nc(-c3ccc4ccc(-c5ccccc5)nc4c3)c3c(N)nccn32)C1 [Linsitinib] (partner 1 µM)
# In short: (§1)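 Values are medians from duplicate plates. Each reflects relative viability, defined as the nuclei count of treated wells over that of vehicle wells. Lung cancer cell lines in 1536-well plates were pin-tool dosed one day after seeding with one drug alone or with a fixed anchor-drug dose plus five library-drug doses (not always all listed) in √10 steps, then fixed, stained and imaged at 4× after 5 days.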
# [2] = compound: CCc1cnn2c(NCc3ccc[n+]([O-])c3)cc(N3CCCC[C@H]3CCO)nc12 [Dinaciclib] + CC(C)C[C@H](NC(=O)[C@H](Cc1ccccc1)NC(=O)c1cnccn1)B(O)O [Bortezomib] (partner 0.002 µM)
# In short: as §1
# [3] = compound: CCc1cnn2c(NCc3ccc[n+]([O-])c3)cc(N3CCCC[C@H]3CCO)nc12 [Dinaciclib] + Nc1nc2[nH]cc(CCc3ccc(C(=O)N[C@@H](CCC(=O)O)C(=O)O)cc3)c2c(=O)[nH]1 [Pemetrexed] (partner 0.2 µM)
# In short: as §1
# [4] = compound: CCc1cnn2c(NCc3ccc[n+]([O-])c3)cc(N3CCCC[C@H]3CCO)nc12 [Dinaciclib] + Cc1cc(Nc2cc(N3CCN(C)CC3)nc(Sc3ccc(NC(=O)C4CC4)cc3)n2)n[nH]1 [Tozasertib] (partner 0.1 µM)
# In short: as §1
# [5] = compound: CCc1cnn2c(NCc3ccc[n+]([O-])c3)cc(N3CCCC[C@H]3CCO)nc12 [Dinaciclib] + N=C(N)NC(=N)NCCc1ccccc1 [Phenformin] (partner 250 µM)
# In short: as §1
Cell Line,relative viability ([1]; first compound 0.009487 µM),relative viability ([1]; first compound 0.03 µM),relative viability ([1]; first compound 0.09487 µM),relative viability ([1]; first compound 0.3 µM),relative viability ([2]; first compound 0.009487 µM),relative viability ([2]; first compound 0.03 µM),relative viability ([2]; first compound 0.09487 µM),relative viability ([2]; first compound 0.3 µM),relative viability ([3]; first compound 0.009487 µM),relative viability ([3]; first compound 0.03 µM),relative viability ([3]; first compound 0.09487 µM),relative viability ([3]; first compound 0.3 µM),relative viability ([4]; first compound 0.009487 µM),relative viability ([4]; first compound 0.03 µM),relative viability ([4]; first compound 0.09487 µM),relative viability ([4]; first compound 0.3 µM),relative viability ([5]; first compound 0.009487 µM),relative viability ([5]; first compound 0.03 µM),relative viability ([5]; first compound 0.09487 µM),relative viability ([5]; first compound 0.3 µM)
EMC-BAC-2,0.868,0.235,0.14,0.161,0.978,0.779,0.137,0.148,0.451,0.381,0.288,0.259,0.265,0.209,0.142,0.121,0.472,0.199,0.13,0.166
NCI-H661,0.452,0.184,0.144,0.2,0.774,0.155,0.167,0.186,0.798,0.365,0.214,0.151,0.339,0.183,0.199,0.18,0.192,0.209,0.185,0.185
LU99A,0.336,0.154,0.145,0.141,0.645,0.134,0.135,0.122,0.205,0.16,0.132,0.137,0.247,0.142,0.143,0.148,0.709,0.14,0.0878,0.132
LK-2,0.523,0.127,0.159,0.117,–,–,–,–,0.38,0.0867,0.0811,0.0749,0.2,0.154,0.151,0.168,0.274,0.142,0.156,0.125
SW 900,–,–,–,–,–,–,–,–,0.448,0.195,0.166,0.153,0.707,0.149,0.0868,0.0829,0.612,0.141,0.0751,0.101
NCI-H3122,0.932,0.147,0.145,0.147,1,0.195,0.139,0.151,0.245,0.106,0.0981,0.0956,0.169,0.091,0.0926,0.0829,0.172,0.101,0.103,0.106
NCI-H2347,1.03,0.355,0.273,0.266,1.23,0.226,0.239,0.215,0.459,0.319,0.228,0.224,0.425,0.17,0.138,0.174,0.468,0.131,0.193,0.209
NCI-H1563,1.39,0.794,0.331,0.376,1.13,0.485,0.368,0.387,0.704,0.393,0.161,0.13,–,–,–,–,0.745,0.365,0.259,0.236
HCC-827,0.951,0.747,0.181,0.147,0.986,0.746,0.213,0.178,0.27,0.129,0.122,0.13,0.417,0.251,0.101,0.117,0.385,0.339,0.121,0.123
NCI-H1666,0.656,0.198,0.209,0.216,0.528,0.19,0.164,0.18,0.933,0.399,0.504,0.491,0.586,0.284,0.275,0.276,0.461,0.34,0.4,0.347
NCI-H358,0.552,0.149,0.185,0.176,–,–,–,–,0.186,0.108,0.0948,0.0955,0.103,0.0813,0.0924,0.0857,0.268,0.078,0.0729,0.0856
201T,1.11,1,0.362,0.368,1.15,0.718,0.321,0.281,0.317,0.311,0.206,0.187,0.915,0.293,0.274,0.263,0.418,0.415,0.257,0.238
PC-3 [JPC-3],0.912,0.991,0.537,0.237,0.679,0.791,0.226,0.231,1.12,0.53,0.289,0.285,0.889,0.745,0.274,0.215,0.492,0.476,0.326,0.204
NCI-H2405,0.989,0.25,0.262,0.235,0.904,0.761,0.207,0.271,0.803,0.247,0.213,0.209,0.619,0.2,0.213,0.208,0.417,0.253,0.223,0.186
LXF-289,0.994,0.315,0.0869,0.071,1.04,0.193,0.0851,0.0696,0.815,0.254,0.0816,0.0773,0.183,0.149,0.0561,0.0572,0.538,0.229,0.0748,0.0626
EKVX,0.961,0.51,0.0946,0.137,1.02,0.451,0.109,0.149,0.35,0.267,0.122,0.123,0.398,0.253,0.074,0.0722,0.239,0.218,0.162,0.091
A-427,1.09,0.512,0.0865,0.0756,0.969,0.487,0.0789,0.0623,0.883,0.156,0.101,0.112,0.236,0.0917,0.0666,0.0775,0.328,0.094,0.0857,0.0889
IA-LM,0.664,0.27,0.028,0.0252,0.72,0.0186,0.019,0.014,–,–,–,–,–,–,–,–,–,–,–,–

Cell Line,relative viability ([1]; first compound 0.009487 µM),relative viability ([1]; first compound 0.03 µM),relative viability ([1]; first compound 0.09487 µM),relative viability ([1]; first compound 0.3 µM),relative viability ([2]; first compound 0.009487 µM),relative viability ([2]; first compound 0.03 µM),relative viability ([2]; first compound 0.09487 µM),relative viability ([2]; first compound 0.3 µM),relative viability ([3]; first compound 0.009487 µM),relative viability ([3]; first compound 0.03 µM),relative viability ([3]; first compound 0.09487 µM),relative viability ([3]; first compound 0.3 µM),relative viability ([4]; first compound 0.009487 µM),relative viability ([4]; first compound 0.03 µM),relative viability ([4]; first compound 0.09487 µM),relative viability ([4]; first compound 0.3 µM),relative viability ([5]; first compound 0.009487 µM),relative viability ([5]; first compound 0.03 µM),relative viability ([5]; first compound 0.09487 µM),relative viability ([5]; first compound 0.3 µM)
ChaGo-K-1,–,–,–,–,0.637,0.222,0.178,0.187,0.257,0.216,0.149,0.119,0.22,0.168,0.132,0.111,0.414,0.17,0.125,0.137
SK-MES-1,1.08,0.493,0.168,0.164,–,–,–,–,0.799,0.192,0.179,0.168,0.777,0.157,0.156,0.139,0.533,0.171,0.147,0.153
LCLC-97TM1,0.168,0.12,0.126,0.107,0.0824,0.0484,0.0476,0.0667,0.152,0.0671,0.0619,0.062,0.172,0.115,0.128,0.112,0.391,0.257,0.153,0.129
NCI-H2170,–,–,–,–,–,–,–,–,0.292,0.133,0.125,0.119,0.721,0.171,0.144,0.143,0.415,0.133,0.119,0.152
NCI-H1993,0.69,0.586,–,0.518,1.18,0.551,–,0.61,0.592,0.452,0.484,0.427,0.505,0.623,0.595,0.565,0.466,0.581,0.594,0.565
NCI-H460,0.434,0.0071,0.0074,0.0155,0.591,0.013,0.0102,0.0119,0.0617,0.0567,0.0208,0.017,0.489,0.0458,0.015,0.0209,0.296,0.0189,0.0192,0.0198
NCI-H1975,0.632,0.265,0.13,0.141,0.29,0.126,0.109,0.12,0.275,0.288,0.146,0.16,0.927,0.416,0.082,0.071,0.364,0.153,0.113,0.1
RERF-LC-KJ,0.924,0.193,0.147,0.099,1.1,0.327,0.157,0.173,0.489,0.161,0.126,0.121,0.45,0.18,0.179,0.167,0.35,0.223,0.224,0.185
ABC-1,0.665,0.278,0.166,0.126,0.231,0.179,0.167,0.157,–,–,–,–,0.199,0.174,0.11,0.0868,0.209,0.157,0.13,0.132
NCI-H1792,0.559,0.317,0.069,0.0552,0.925,0.741,0.238,0.0774,0.561,0.14,0.0501,0.0374,–,–,–,–,0.237,0.184,0.0541,0.075
NCI-H727,0.268,0.193,0.0908,0.158,0.869,0.231,0.217,0.238,–,–,–,–,0.538,0.287,0.276,0.282,0.648,0.284,0.256,0.21
NCI-H1944,1.36,0.613,0.192,0.225,–,–,–,–,0.712,0.119,0.14,0.136,0.233,0.134,0.132,0.127,0.184,0.117,0.121,0.13
NCI-H1703,0.767,0.25,0.0664,0.0983,0.366,0.122,0.132,0.114,–,–,–,–,–,–,–,–,–,–,–,–
NCI-H1650,–,–,–,–,0.172,0.178,0.158,0.142,0.366,0.335,0.152,0.0974,0.363,0.176,0.119,0.147,0.262,0.139,0.151,0.126
NCI-H1395,1.56,0.249,0.297,0.277,–,–,–,–,0.505,0.231,0.213,0.26,0.782,0.301,0.24,0.239,0.453,0.306,0.301,0.248
NCI-H1793,0.818,0.187,0.119,0.128,–,–,–,–,0.63,0.139,0.142,0.13,0.284,0.13,0.131,0.103,0.374,0.235,0.115,0.119
NCI-H2342,–,–,–,–,–,–,–,–,0.851,0.56,0.3,0.274,0.491,0.468,0.231,0.203,0.737,0.543,0.288,0.303
NCI-H522,–,–,–,–,–,–,–,–,1.32,1.14,0.371,0.25,0.488,0.418,0.372,0.278,0.598,0.5,0.341,0.339
